The values below come from US12559529B2, “NPY2 receptor agonists” (Boehringer Ingelheim International GmbH, priority 2019, dated 2026).

In general, Ki refers to a measure of affinity in units of concentration, obtained from inhibition or displacement.

This test deals with T1, Human Neuropeptide Y2 Receptor (Homo sapiens, UniProt P49146).
T1 construct: purchased CHEMICON HTS066M
T1 sequence (P49146 1-381): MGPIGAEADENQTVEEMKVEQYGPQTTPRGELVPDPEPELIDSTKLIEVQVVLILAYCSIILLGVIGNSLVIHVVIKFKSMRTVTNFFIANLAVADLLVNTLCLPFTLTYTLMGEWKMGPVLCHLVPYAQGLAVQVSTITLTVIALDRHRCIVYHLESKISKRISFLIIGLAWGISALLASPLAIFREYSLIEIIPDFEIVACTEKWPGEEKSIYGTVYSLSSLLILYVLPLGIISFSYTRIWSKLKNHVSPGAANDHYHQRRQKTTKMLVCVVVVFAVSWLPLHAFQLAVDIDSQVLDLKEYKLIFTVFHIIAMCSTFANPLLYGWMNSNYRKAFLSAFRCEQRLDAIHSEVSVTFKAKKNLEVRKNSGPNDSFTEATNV
The experiment in a line: Radioligand binding competition assay (RLB). The conditions noted are these: Table 3; human 125I-PYY (1-36) 0.02 nM, Y2 receptor membranes; read-out: Ki. Summed up: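 Membranes from cells expressing human Y2 receptor (0.5 μg protein/well) were incubated with radioligand and serially diluted peptides in 50 mM HEPES, 5 mM MgCl2, 1 mM CaCl2, 0.2% ovalbumin, pH 7.4, for 2 h at room temperature with shaking. Bound radioactivity was collected by filtration and counted; IC50 from sigmoidal nonlinear regression.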
Take `CC(C)CC(=O)N[C@@H](C)C(=O)N1CCC[C@H]1C(=O)N[C@@H](CCC(=O)O)C(=O)N[C@@H](CCCCNC(=O)COCCOCCNC(=O)COCCOCCNC(=O)CC[C@H](NC(=O)CCCCCCCCCCCCCCCCC(=O)O)C(=O)O)C(=O)N1CCC[C@H]1C(=O)N[C@@H](CCC(=O)O)C(=O)N[C@@H](CCC(=O)O)C(=O)N[C@@H](CC(=O)O)C(=O)N[C@@H](C)C(=O)N[C@@H](CCC(=O)O)C(=O)N1CCC[C@H]1C(=O)N[C@@H](CCC(=O)O)C(=O)N[C@@H](CCC(=O)O)C(=O)N[C@H](C(=O)N[C@@H](CCC(N)=O)C(=O)N[C@@H](CCCNC(=N)N)C(=O)N[C@@H](Cc1ccc(O)cc1)C(=O)N[C@@H](Cc1ccc(O)cc1)C(=O)N[C@H](C(=O)N[C@@H](CO)C(=O)N[C@@H](CC(C)C)C(=O)N[C@@H](CCCNC(=N)N)C(=O)N[C@@H](Cc1c[nH]cn1)C(=O)N[C@@H](Cc1ccc(O)cc1)C(=O)N[C@@H](Cc1ccc(O)cc1)C(=O)N[C@@H](CC(N)=O)C(=O)N[C@@H](Cc1c[nH]c2ccccc12)C(=O)N[C@@H](CC(C)C)C(=O)N[C@H](C(=O)N[C@@H](CCCNC(=N)N)C(=O)N[C@@H](CCC(N)=O)C(=O)N[C@@H](CCCNC(=N)N)C(=O)N[C@@H](Cc1ccc(O)cc1)C(N)=O)[C@@H](C)O)C(C)C)[C@@H](C)O` [Compound 199, N{alpha-4}-(3-methylbutanoyl)-N{epsilon-7}-[2-(2-{2-[2-(2-{2-[(4S)-4-carboxy-4-(17-carboxyheptadecanamido)butanamido]ethoxy}ethoxy)acetamido]ethoxy}ethoxy)acetamido]-[4A,7K,9E,13E,17T,18Q,22V,28Y,30W,31L]hPYY (4-36)]: the inhibition constant Ki came out at 5.69 nM.
Turning to `CC(C)CC(=O)N[C@@H](C)C(=O)N1CCC[C@H]1C(=O)N[C@@H](C)C(=O)N[C@@H](CCCCNC(=O)COCCOCCNC(=O)COCCOCCNC(=O)CC[C@H](NC(=O)CCCCCCCCCCCCCCCCC(=O)O)C(=O)O)C(=O)N1CCC[C@H]1C(=O)N[C@@H](CCC(=O)O)C(=O)N[C@@H](CCC(=O)O)C(=O)N[C@@H](CC(=O)O)C(=O)N[C@@H](C)C(=O)N[C@@H](CO)C(=O)N1CCC[C@H]1C(=O)N[C@@H](C)C(=O)N[C@@H](CCC(=O)O)C(=O)N[C@@H](CC(C)C)C(=O)N[C@@H](CCC(N)=O)C(=O)N[C@@H](CCCNC(=N)N)C(=O)N[C@@H](Cc1ccc(O)cc1)C(=O)N[C@@H](Cc1ccc(O)cc1)C(=O)N[C@H](C(=O)N[C@@H](CO)C(=O)N[C@@H](CC(C)C)C(=O)N[C@@H](CCCNC(=N)N)C(=O)N[C@@H](Cc1c[nH]cn1)C(=O)N[C@@H](Cc1ccc(O)cc1)C(=O)N[C@@H](Cc1ccc(O)cc1)C(=O)N[C@@H](CC(N)=O)C(=O)N[C@@H](Cc1c[nH]c2ccccc12)C(=O)N[C@@H](CC(C)C)C(=O)N[C@H](C(=O)N[C@@H](CCCNC(=N)N)C(=O)N[C@@H](CCC(N)=O)C(=O)N[C@@H](CCCNC(=N)N)C(=O)N[C@@H](Cc1ccc(O)cc1)C(N)=O)[C@@H](C)O)C(C)C` [Compound 179, N{alpha-4}-(3-methylbutanoyl)-N{epsilon-7}-[2-(2-{2-[2-(2-{2-[(4S)-4-carboxy-4-(17-carboxyheptadecanamido)butanamido]ethoxy}ethoxy)acetamido]ethoxy}ethoxy)acetamido]-[4A,6A,7K,9E,15A,18Q,22V,28Y,30W,31L]hPYY (4-36)], the Ki is 1 nM.
Turning to `CC(C)CC(=O)N[C@@H](C)C(=O)N1CCC[C@H]1C(=O)N[C@@H](CCC(=O)O)C(=O)N[C@@H](CCCCNC(=O)COCCOCCNC(=O)COCCOCCNC(=O)CC[C@H](NC(=O)CCCCCCCCCCCCCCCCC(=O)O)C(=O)O)C(=O)N[C@@H](C)C(=O)N[C@@H](CCC(=O)O)C(=O)N[C@@H](CCC(=O)O)C(=O)N[C@@H](CC(=O)O)C(=O)N[C@@H](C)C(=O)N[C@@H](CO)C(=O)N1CCC[C@H]1C(=O)N[C@@H](CCC(=O)O)C(=O)N[C@@H](CCC(=O)O)C(=O)N[C@@H](CC(C)C)C(=O)N[C@@H](CCC(N)=O)C(=O)N[C@@H](CCCNC(=N)N)C(=O)N[C@@H](Cc1ccc(O)cc1)C(=O)N[C@@H](Cc1ccc(O)cc1)C(=O)N[C@H](C(=O)N[C@@H](CCC(=O)O)C(=O)N[C@@H](CC(C)C)C(=O)N[C@@H](CCCNC(=N)N)C(=O)N[C@@H](Cc1c[nH]cn1)C(=O)N[C@@H](Cc1ccc(O)cc1)C(=O)N[C@@H](Cc1ccc(O)cc1)C(=O)N[C@@H](CC(N)=O)C(=O)N[C@@H](Cc1c[nH]c2ccccc12)C(=O)N[C@@H](CC(C)C)C(=O)N[C@H](C(=O)N[C@@H](CCCNC(=N)N)C(=O)N[C@@H](CCC(N)=O)C(=O)N[C@@H](CCCNC(=N)N)C(=O)N[C@@H](Cc1ccc(O)cc1)C(N)=O)[C@@H](C)O)C(C)C` [Compound 131, N{alpha-4}-(3-methylbutanoyl)-N{epsilon-7}-[2-(2-{2-[2-(2-{2-[(4S)-4-carboxy-4-(17-carboxyheptadecanamido)butanamido]ethoxy}ethoxy)acetamido]ethoxy}ethoxy)acetamido]-[4A,7K,8A,9E,18Q,22V,23E,28Y,30W,31L]hPYY (4-36)], the Ki is 8.54 nM.
The figure for `CC(C)CC(=O)N[C@@H](C)C(=O)N1CCC[C@H]1C(=O)N[C@@H](CCC(=O)O)C(=O)N[C@@H](CCCCNC(=O)COCCOCCNC(=O)COCCOCCNC(=O)CC[C@H](NC(=O)CCCCCCCCCCCCCCCCC(=O)O)C(=O)O)C(=O)N1CCC[C@H]1C(=O)N[C@@H](CCC(=O)O)C(=O)N[C@@H](CCC(=O)O)C(=O)N[C@@H](CC(=O)O)C(=O)N[C@@H](C)C(=O)N[C@@H](CO)C(=O)N1CCC[C@H]1C(=O)N[C@@H](CCC(=O)O)C(=O)N[C@@H](CCC(=O)O)C(=O)N[C@H](C(=O)N[C@@H](CCC(N)=O)C(=O)N[C@@H](CCCNC(=N)N)C(=O)N[C@@H](Cc1ccc(O)cc1)C(=O)N[C@@H](CCC(=O)O)C(=O)N[C@H](C(=O)N[C@@H](CO)C(=O)N[C@@H](CC(C)C)C(=O)N[C@@H](CCCNC(=N)N)C(=O)N[C@@H](Cc1c[nH]cn1)C(=O)N[C@@H](Cc1ccc(O)cc1)C(=O)N[C@@H](Cc1ccc(O)cc1)C(=O)N[C@@H](CC(N)=O)C(=O)N[C@@H](Cc1c[nH]c2ccccc12)C(=O)N[C@@H](CC(C)C)C(=O)N[C@H](C(=O)N[C@@H](CCCNC(=N)N)C(=O)N[C@@H](CCC(N)=O)C(=O)N[C@@H](CCCNC(=N)N)C(=O)N[C@@H](Cc1ccc(O)cc1)C(N)=O)[C@@H](C)O)C(C)C)[C@@H](C)O` [Compound 37, N{alpha-4}-(3-methylbutanoyl)-N{epsilon-7}-[2-(2-{2-[2-(2-{2-[(4S)-4-carboxy-4-(17-carboxyheptadecanamido)butanamido]ethoxy}ethoxy)acetamido]ethoxy}ethoxy)acetamido]-[4A,7K,9E,17T,18Q,21E,22V,28Y,30W,31L]hPYY (4-36)] is 4.85 nM.
